Assay results taken from US12331041B2, “GLP-1 receptor agonists and uses thereof” (Pfizer Inc., priority 2018, dated 2025).
Structures can show the parent of a compound that is named as a salt.

Key:
human GLP-1R [1] = target: T1, human GLP-1R (Homo sapiens, UniProt P43220, G168S); test: CHO GLP-1R Clone H6 - Assay 1 (HTRF cAMP agonist assay); assay type: cell-based; conditions: for EC50: CHO Clone H6, high GLP-1R density, cAMP, geometric mean; for Emax: CHO Clone H6, relative to saturating full agonist GLP-1 7-36 (1 μM), arithmetic mean
T1 construct: expressed in transfected cells
T1 sequence (P43220 24-463 G168S): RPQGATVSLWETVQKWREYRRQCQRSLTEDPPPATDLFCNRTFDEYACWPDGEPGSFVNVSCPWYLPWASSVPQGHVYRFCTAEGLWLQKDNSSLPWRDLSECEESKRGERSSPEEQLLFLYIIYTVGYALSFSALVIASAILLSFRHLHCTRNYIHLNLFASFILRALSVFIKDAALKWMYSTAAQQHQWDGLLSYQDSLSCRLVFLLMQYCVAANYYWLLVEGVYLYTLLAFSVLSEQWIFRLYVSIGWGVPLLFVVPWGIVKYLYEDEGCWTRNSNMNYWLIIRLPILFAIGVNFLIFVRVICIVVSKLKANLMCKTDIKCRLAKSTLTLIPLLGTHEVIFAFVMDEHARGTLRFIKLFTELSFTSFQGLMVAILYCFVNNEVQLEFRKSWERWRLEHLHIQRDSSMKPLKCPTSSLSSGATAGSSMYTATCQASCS
In short: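 CHO Clone H6 cells stably expressing human GLP-1R (G168S) were plated 48 h, then given compound for 30 min at 37° C in HBSS/0.1% BSA/HEPES with 100 μM IBMX and 1% DMSO. cAMP was measured by HTRF against a standard curve.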

human GLP-1R [2] = target: T2, human GLP-1R (Homo sapiens, UniProt P43220, L260F); test: CHO GLP-1R Clone C6 - Assay 2 (HTRF cAMP agonist assay); assay type: cell-based; conditions: for EC50: CHO clone C6, low GLP-1R density, cAMP, geometric mean; for Emax: CHO clone C6, relative to saturating full agonist GLP-1 (1 μM), arithmetic mean
T2 construct: expressed in transfected cells; host or cells: CHO Flp-In T-REx, clonal line C6 (pcDNA5-FRT-TO)
T2 sequence (P43220 24-463 L260F): as the sequence (P43220 24-463 G168S) above, with S145G, L237F counted along it

Row | SMILES | EC50 (human GLP-1R [1]) | Emax (human GLP-1R [1]) | EC50 (human GLP-1R [2]) | Emax (human GLP-1R [2])
1 | CCn1nncc1Cn1c(CN2CCC(c3ccnc(OCc4ccc(Cl)cc4F)n3)CC2)nc2ccc(C(=O)O)cc21 [Example 64, 2-[(4-{2-[(4-chloro-2-fluorobenzyl)oxy]pyrimidin-4-yl}piperidin-1-yl)methyl]-1-[(1-ethyl-1H-1,2,3-triazol-5-yl)methyl]-1H-benzimidazole-6-carboxylic acid] | 0.024 µM | 96% | 0.1 µM | 100%
2 | COCCn1c(CN2CCC(c3ccnc(OCc4ccc(Cl)cc4F)n3)CC2)nc2ccc(C(=O)O)cc21 [Example 65, 2-[(4-{2-[(4-chloro-2-fluorobenzyl)oxy]pyrimidin-4-yl}piperidin-1-yl)methyl]-1-(2-methoxyethyl)-1H-benzimidazole-6-carboxylic acid, hydrochloride salt] | 0.088 µM | 85% | 1.7 µM | 110%
3 | O=C(O)c1ccc2nc(CN3CCC(c4ccnc(OCc5ccc(Cl)cc5F)n4)CC3)n(Cc3ncco3)c2c1 [Example 68, 2-[(4-{2-[(4-chloro-2-fluorobenzyl)oxy]pyrimidin-4-yl}piperidin-1-yl)methyl]-1-(1,3-oxazol-2-ylmethyl)-1H-benzimidazole-6-carboxylic acid, trifluoroacetate salt] | 0.0083 µM | 77% | 0.31 µM | 92%
4 | C[C@H]1CN(c2nc(OCc3ccc(Cl)cc3F)ncc2F)CCN1Cc1nc2ccc(C(=O)O)cc2n1C[C@@H]1CCCO1 [Example 71, 2-{[(2S)-4-{2-[(4-chloro-2-fluorobenzyl)oxy]-5-fluoropyrimidin-4-yl}-2-methylpiperazin-1-yl]methyl}-1-[(2S)-tetrahydrofuran-2-ylmethyl]-1H-benzimidazole-6-carboxylic acid] | 0.0089 µM | 82% | 0.16 µM | 90%
5 | O=C(O)c1ccc2nc(CN3CCN(c4nc(OCc5ccc(Cl)cc5F)ncc4F)CC3)n(C[C@@H]3CCO3)c2c1 [Example 72, 2-[(4-{2-[(4-chloro-2-fluorobenzyl)oxy]-5-fluoropyrimidin-4-yl}piperazin-1-yl)methyl]-1-[(2S)-oxetan-2-ylmethyl]-1H-benzimidazole-6-carboxylic acid] | 0.006 µM | 96% | 0.12 µM | 130%
6 | COCCn1c(CN2CCN(c3ccnc(OCc4ccc(Cl)cc4F)n3)[C@H](C)C2)nc2ccc(C(=O)O)cc21 [Example 74, 2-{[(3R)-4-{2-[(4-chloro-2-fluorobenzyl)oxy]pyrimidin-4-yl}-3-methylpiperazin-1-yl]methyl}-1-(2-methoxyethyl)-1H-benzimidazole-6-carboxylic acid, trifluoroacetate salt] | 0.5 µM | 86% | 11 µM | 96%
7 | C[C@@H]1CN(c2ccnc(OCc3ccc(Cl)cc3F)n2)CCN1Cc1nc2ccc(C(=O)O)cc2n1C[C@@H]1CCO1 [Example 75, ammonium 2-{[(2R)-4-{2-[(4-chloro-2-fluorobenzyl)oxy]pyrimidin-4-yl}-2-methylpiperazin-1-yl]methyl}-1-[(2S)-oxetan-2-ylmethyl]-1H-benzimidazole-6-carboxylate] | 0.021 µM | 88% | 0.37 µM | 100%
8 | C[C@@H]1CN(Cc2nc3ccc(C(=O)O)cc3n2C[C@@H]2CCO2)[C@@H](C)CN1c1ccnc(OCc2ccc(Cl)cc2F)n1 [Example 76, ammonium 2-{[(2S,5R)-4-{2-[(4-chloro-2-fluorobenzyl)oxy]pyrimidin-4-yl}-2,5-dimethylpiperazin-1-yl]methyl}-1-[(2S)-oxetan-2-ylmethyl]-1H-benzimidazole-6-carboxylate] | 0.012 µM | 88% | 0.18 µM | 100%
9 | C[C@H]1CN(c2ccnc(OCc3ccc(Cl)cc3F)n2)CCN1Cc1nc2ccc(C(=O)O)nc2n1C[C@@H]1CCO1 [Example 77, 2-{[(2S)-4-{2-[(4-chloro-2-fluorobenzyl)oxy]pyrimidin-4-yl}-2-methylpiperazin-1-yl]methyl}-3-[(2S)-oxetan-2-ylmethyl]-3H-imidazo[4,5-b]pyridine-5-carboxylic acid] | 0.0044 µM | 100% | 0.11 µM | 110%
10 | C[C@H]1CN(c2ccnc(OCc3ccc(Cl)cc3F)n2)CCN1Cc1nc2ccc(C(=O)O)cc2n1Cc1ncco1 [Example 78, 2-{[(2S)-4-{2-[(4-chloro-2-fluorobenzyl)oxy]pyrimidin-4-yl}-2-methylpiperazin-1-yl]methyl}-1-(1,3-oxazol-2-ylmethyl)-1H-benzimidazole-6-carboxylic acid, trifluoroacetate salt] | 0.017 µM | 79% | 0.44 µM | 81%

The remaining lines, values ahead:

Row | EC50 (human GLP-1R [1]) | Emax (human GLP-1R [1]) | EC50 (human GLP-1R [2]) | Emax (human GLP-1R [2]) | SMILES
11 | 0.0044 µM | 86% | 0.11 µM | 98% | O=C(O)c1ccc2nc(CN3CCC(c4ccnc(OCc5ccc(Cl)cc5F)n4)CC3)n(C[C@@H]3CCO3)c2c1 [Example 62, 2-[(4-{2-[(4-Chloro-2-fluorobenzyl)oxy]pyrimidin-4-yl}piperidin-1-yl)methyl]-1-[(2S)-oxetan-2-ylmethyl]-1H-benzimidazole-6-carboxylic acid]
12 | 0.0033 µM | 90% | 0.052 µM | 120% | O=C(O)c1ccc2nc(CN3CCC(c4ccnc(OCc5ccc(Cl)cc5F)n4)CC3)n(C[C@@H]3CCO3)c2n1 [Example 67, ammonium 2-[(4-{2-[(4-chloro-2-fluorobenzyl)oxy]pyrimidin-4-yl}piperidin-l-yl)methyl]-3-[(2S)-oxetan-2-ylmethyl]-3H-imidazo[4,5-b]pyridine-5-carboxylate]
13 | 0.00091 µM | 89% | 0.018 µM | 110% | C[C@H]1CN(c2nc(OCc3ccc(Cl)cc3F)ncc2F)CCN1Cc1nc2ccc(C(=O)O)cc2n1C[C@@H]1CCO1 [Example 69, Ammonium 2-{[(2S)-4-{2-[(4-chloro-2-fluorobenzyl)oxy]-5-fluoropyrimidin-4-yl}-2-methylpiperazin-1-yl]methyl}-1-[(2S)-oxetan-2-ylmethyl]-1H-benzimidazole-6-carboxylate]
14 | 0.0024 µM | 84% | 0.089 µM | 100% | C[C@H]1CN(c2ccnc(OCc3ccc(Cl)cc3F)n2)CCN1Cc1nc2ccc(C(=O)O)cc2n1C[C@@H]1CCO1 [Example 73, 2-{[(2S)-4-{2-[(4-chloro-2-fluorobenzyl)oxy]pyrimidin-4-yl}-2-methylpiperazin-1-yl]methyl}-1-[(2S)-oxetan-2-ylmethyl]-1H-benzimidazole-6-carboxylic acid]
